According to patent US20040022733A1, “Conjugated lysine copolymers” (priority 2002, published 2004):

Test system: rat mammary adenocarcinoma cells (ATCC 13762, Mat B cells)
Assay: MR imaging on a rat tumor model (tumor enhancement)
Type: in vivo
Experimental: Imaging was done on a rat tumor model. Specifically, rat mammary adenocarcinoma cells (ATCC 13762, Mat B cells) were implanted in Fisher 344 female rats ([…] in 0.5 ml phosphate buffered saline). After 7-9 days, tumors were about 10 mm in diameter and the imaging was done at that point. Imaging was performed using a GE CSI scanner at 2T with a 33 cm bore. A birdcage quadrature coil was used for transmission and receiving. T1 weighted images were obtained (TR 250 ms, TE 18 MS, NEX 16). Rats were imaged prior to injection of contrast agent. […] The rats were then imaged immediately after injection and then at 24 hours.

O=C([O-])CN(CCN(CC(=O)[O-])CC(=O)O)CCN(CC(=O)[O-])CC(=O)O.[Gd+3] [Gd-DTPA]
tumor enhancement (rat tumor model, standard dose of 0.1 mmol Gd/kG): 70%
wash out of tumors (rat, in vivo): rapidly wash out of tumors
